PubChem BioAssay AID328 (DTP/NCI, 2004)
Toxic doses and inconclusive results are not listed.

System: BDF1 mice, P388 leukemia ip, median survival T/C
Test: NCI In Vivo Anticancer Drug Screen. Data for tumor model P388 Leukemia (intraperitoneal) in B6D2F1 (BDF1) mice
Conditions: endpoint: median survival time, higher = longer survival
How it was run: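 Reported as T/C, where T is the survival measurement in dosed animals and C the same measurement in vehicle controls.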

[1] = dose: 50.0 mg/kg/injection, schedule: Q01DX009 (ip), vehicle: saline with Tween-80
[2] = dose: 100.0 mg/kg/injection, schedule: Q01DX009 (ip), vehicle: saline with Tween-80
[3] = dose: 200.0 mg/kg/injection, schedule: Q01DX009 (ip), vehicle: saline with Tween-80

With BrC1C2CC3C(C2)C13 (configuration not stated) the T/C (dose: 100.0 mg/kg/injection, schedule: Q01DX009 (ip), vehicle: Klucel (hydroxypropylcellulose) (HPC)) was 100 % of control, the T/C (dose: 200.0 mg/kg/injection, schedule: Q01DX009 (ip), vehicle: Klucel (hydroxypropylcellulose) (HPC)) was 86 % of control and the T/C (dose: 400.0 mg/kg/injection, schedule: Q01DX009 (ip), vehicle: Klucel (hydroxypropylcellulose) (HPC)) was 109 % of control.

In the case of CCCCCC#CC(=O)O, the T/C [1] is reported as 99 % of control, the T/C [2] is reported as 100 % of control and the T/C [3] is reported as 90 % of control.

For CCOC(=O)c1cc([N+](=O)[O-])c(C)s1, the T/C (dose: 100.0 mg/kg/injection, schedule: Q01DX009 (sc), vehicle: olive oil, sesame oil, peanut oil) was 100 % of control, the T/C (dose: 100.0 mg/kg/injection, schedule: Q04DX003 (sc), vehicle: olive oil, sesame oil, peanut oil) was 95 % of control and the T/C (dose: 200.0 mg/kg/injection, schedule: Q01DX009 (sc), vehicle: olive oil, sesame oil, peanut oil) was 91 % of control. For the same compound, the T/C (dose: 200.0 mg/kg/injection, schedule: Q04DX003 (sc), vehicle: olive oil, sesame oil, peanut oil) was 95 % of control, the T/C (dose: 400.0 mg/kg/injection, schedule: Q01DX009 (sc), vehicle: olive oil, sesame oil, peanut oil) was 100 % of control and the T/C (dose: 400.0 mg/kg/injection, schedule: Q04DX003 (sc), vehicle: olive oil, sesame oil, peanut oil) was 100 % of control.

In the case of CC1(C)N=C(N)Nc2nnc(-c3cccc(Cl)c3)n21, the T/C (dose: 100.0 mg/kg/injection, schedule: Q01DX001 (ip), vehicle: saline sonified) is reported as 105 % of control, the T/C (dose: 200.0 mg/kg/injection, schedule: Q01DX001 (ip), vehicle: saline sonified) is reported as 100 % of control and the T/C (dose: 400.0 mg/kg/injection, schedule: Q01DX001 (ip), vehicle: saline sonified) is reported as 100 % of control.

In the case of CC(C(=O)O)=C(c1ccccc1)c1ccccc1, the T/C (dose: 100.0 mg/kg/injection, schedule: Q01DX001 (ip), vehicle: saline with Tween-80) is reported as 100 % of control, the T/C (dose: 200.0 mg/kg/injection, schedule: Q01DX001 (ip), vehicle: saline with Tween-80) is reported as 100 % of control and the T/C (dose: 400.0 mg/kg/injection, schedule: Q01DX001 (ip), vehicle: saline with Tween-80) is reported as 100 % of control.

For O/N=C(\C[n+]1ccccc1)c1ccc2ccccc2c1, the T/C (dose: 1.56 mg/kg/injection, schedule: Q01DX009 (ip), vehicle: Klucel (hydroxypropylcellulose) (HPC)) was 113 % of control, the T/C (dose: 3.12 mg/kg/injection, schedule: Q01DX009 (ip), vehicle: Klucel (hydroxypropylcellulose) (HPC)) was 120 % of control and the T/C (dose: 3.12 mg/kg/injection, schedule: Q01DX009 (ip), vehicle: saline) was 107 % of control. The T/C (dose: 6.25 mg/kg/injection, schedule: Q01DX009 (ip), vehicle: Klucel (hydroxypropylcellulose) (HPC)) was 122 % of control, the T/C (dose: 6.25 mg/kg/injection, schedule: Q01DX009 (ip), vehicle: saline) was 120 % of control and the T/C (dose: 50.0 mg/kg/injection, schedule: Q01DX009 (ip), vehicle: saline) was 106 % of control.

For C=CCCC/C(C)=N/NS(=O)(=O)c1ccc(C)cc1, the T/C [1] was 109 % of control, the T/C [2] was 109 % of control and the T/C [3] was 95 % of control.

With Cc1cc(=O)cc(C(=O)O)o1 the T/C (dose: 25.0 mg/kg/injection, schedule: Q04DX003 (ip), vehicle: saline) was 113 % of control, the T/C (dose: 50.0 mg/kg/injection, schedule: Q04DX003 (ip), vehicle: saline) was 100 % of control and the T/C (dose: 100.0 mg/kg/injection, schedule: Q04DX003 (ip), vehicle: saline) was 90 % of control.

CCOC(=O)/C(C#N)=C/N=c1ccccn1C was tested, and the T/C (dose: 6.25 mg/kg/injection, schedule: Q04DX002 (ip), vehicle: saline with Tween-80) was 101 % of control, the T/C (dose: 12.5 mg/kg/injection, schedule: Q04DX002 (ip), vehicle: saline with Tween-80) was 101 % of control and the T/C (dose: 25.0 mg/kg/injection, schedule: Q04DX002 (ip), vehicle: saline with Tween-80) was 101 % of control.

With O=[N+]([O-])c1ccc([I+]c2ccccc2)cc1 the T/C (dose: 1.5 mg/kg/injection, schedule: Q04DX003 (ip), vehicle: saline sonified) was 100 % of control, the T/C (dose: 5.5 mg/kg/injection, schedule: Q01DX009 (ip), vehicle: saline with Tween-80) was 150 % of control and the T/C (dose: 8.25 mg/kg/injection, schedule: Q01DX009 (ip), vehicle: saline with Tween-80) was 154 % of control. For the same compound, the T/C (dose: 12.0 mg/kg/injection, schedule: Q04DX003 (ip), vehicle: saline sonified) was 118 % of control, the T/C (dose: 16.5 mg/kg/injection, schedule: Q04DX003 (ip), vehicle: saline) was 150 % of control and the T/C (dose: 25.0 mg/kg/injection, schedule: Q01DX009 (ip), vehicle: saline with Tween-80) was 154 % of control. The T/C [1] was 150 % of control, the T/C [2] was 158 % of control and the T/C (dose: 100.0 mg/kg/injection, schedule: Q04DX003 (ip), vehicle: saline sonified) was 150 % of control.
